Data as given in the supplement of paper PMC7840683.
± gives the standard deviation of the averaged measurements.

Tested on: HepaRG
Assay: LDH release cytotoxicity, % of total lysis control; higher = more cytotoxic
Conditions: 48 h
In short: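 Eight-point half-log series of test chemicals, the highest at 100 µM, were given in duplicate for 48 h to single-lot HepaRG cells on collagen I-coated 96-well plates in serum-free induction medium with 0.5% DMSO. A Tecan Safire read resorufin fluorescence from CytoTox-ONE as a measure of LDH in 50 µL spent medium, with 0.1% Triton X in total lysis wells. Percent cytotoxicity was normalized to on-plate vehicle and total lysis controls and averaged over the duplicates.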

CCCCCCCC[Si](OCC)(OCC)OCC [Triethoxyoctylsilane]
Conditions | LDH release cytotoxicity [%]
0.03162 µM | -0.684 ± 0.49
0.1 µM | 0.171 ± 0.31
0.3162278 µM | -0.00576 ± 0.17
1 µM | -0.327 ± 0.22
3.16228 µM | 0.39 ± 0.57
10 µM | 0.433 ± 0.79
31.6228 µM | 0.376 ± 0.72
100 µM | 1.59 ± 0.21

CCOP(=S)(Oc1cnc(C(C)(C)C)nc1)OC(C)C (configuration not stated) [Tebupirimfos]
Conditions | LDH release cytotoxicity [%]
0.031623 µM | 0.203 ± 2.2
0.1 µM | -1.67 ± 1.3
0.316228 µM | -2.72 ± 0.73
1 µM | -2.26 ± 0.87
3.16228 µM | -2.34 ± 0.48
10 µM | -3.02 ± 0.61
31.6228 µM | -2.48 ± 1.2
100 µM | -2.06 ± 1.2

C#CCC1=C(C)C(OC(=O)C2C(C=C(C)C)C2(C)C)CC1=O (configuration not stated) [Prallethrin]
Conditions | LDH release cytotoxicity [%]
0.0314647 µM | -1.54 ± 0.38
0.0995 µM | -0.874 ± 0.13
0.3146466 µM | -2.55 ± 0.44
0.995 µM | -2.33 ± 0.64
3.14647 µM | -1.9 ± 0.26
9.95 µM | -1.44 ± 0.14
31.4647 µM | -2.39 ± 0.63
99.5 µM | 3.9 ± 1.4

C=C(C)C(=O)OCCC(F)(F)C(F)(F)C(F)(F)C(F)(F)C(F)(F)C(F)(F)F [6:2 Fluorotelomer methacrylate]
Conditions | LDH release cytotoxicity [%]
0.03162 µM | -0.461 ± 0.18
0.1 µM | 0.735 ± 1.2
0.3162278 µM | 0.518 ± 0.41
1 µM | -0.0542 ± 0.29
3.16228 µM | 0.38 ± 0.35
10 µM | 0.535 ± 0.98
31.6228 µM | 0.834 ± 0.34
100 µM | 1.55 ± 0.43

CCN(CC)C(=S)SSC(=S)N(CC)CC [Tetraethylthiuram disulfide]
Conditions | LDH release cytotoxicity [%]
0.0322552 µM | -1.43 ± 0.25
0.102 µM | -2.15 ± 0.58
0.322552 µM | -2.5 ± 0.25
1.02 µM | -2.4 ± 0.028
3.2255232 µM | -1.91 ± 0.23
10.2 µM | -1.62 ± 0.69
32.2552 µM | -0.659 ± 0.28
102 µM | 3.01 ± 0.7

C/C=C/C=C/C(=O)O [2E,4E-Hexadienoic acid]
Conditions | LDH release cytotoxicity [%]
0.03162 µM | -0.745 ± 0.091
0.1 µM | -1.89 ± 0.18
0.3162278 µM | -1.82 ± 0.54
1 µM | -1.07 ± 0.45
3.16228 µM | -1.03 ± 0.12
10 µM | -1.19 ± 0.023
31.6228 µM | -0.323 ± 0.42
100 µM | 0.653 ± 1.2

CC(C)(C)OOC(C)(C)CCC(C)(C)OOC(C)(C)C [2,5-Dimethyl-2,5-di-(tert-butylperoxy)hexane]
Conditions | LDH release cytotoxicity [%]
0.03162 µM | -1.07 ± 0.59
0.1 µM | -0.939 ± 1
0.3162278 µM | -0.841 ± 0.2
1 µM | -0.347 ± 0.56
3.16228 µM | -0.34 ± 0.39
10 µM | -0.223 ± 0.53
31.6228 µM | 1.22 ± 1.1
100 µM | 2.2 ± 1.6

CC12CCC3C(CCC4=CC(=O)CCC43C)C1CCC2=O (configuration not stated) [4-Androstene-3,17-dione]
Conditions | LDH release cytotoxicity [%]
0.03162 µM | -0.88 ± 1.8
0.1 µM | -1.74 ± 1.8
0.3162278 µM | -3.47 ± 0.78
1 µM | -2.45 ± 0.041
3.16228 µM | -1.84 ± 0.94
10 µM | -1.3 ± 1.1
31.6228 µM | -0.324 ± 1.7
100 µM | 37.8 ± 21

OCCOCCOCCO [Triethylene glycol]
Conditions | LDH release cytotoxicity [%]
0.03162 µM | -0.151 ± 1
0.1 µM | -1.04 ± 0.017
0.3162278 µM | -0.871 ± 0.11
1 µM | -1.23 ± 0.56
3.16228 µM | -1.32 ± 0.055
10 µM | -0.871 ± 0.14
31.6228 µM | -1.1 ± 0.18
100 µM | 0.204 ± 0.36

COc1nc(NC(C)C)nc(NC(C)C)n1 [Prometon]
Conditions | LDH release cytotoxicity [%]
0.03162 µM | -0.0909 ± 0.068
0.1 µM | -0.994 ± 0.017
0.3162278 µM | -1.1 ± 0.4
1 µM | -1.18 ± 0.78
3.16228 µM | -1.26 ± 0.4
10 µM | -1.06 ± 0.7
31.6228 µM | -0.722 ± 0.4
100 µM | -0.643 ± 0.89

Cc1c(C(=O)O)c(O)cc2c1C(=O)c1c(O)c(C3OC(CO)C(O)C(O)C3O)c(O)c(O)c1C2=O (configuration not stated) [Carminic acid]
Conditions | LDH release cytotoxicity [%]
0.03162 µM | -11.2 ± 0.91
0.1 µM | -11.08 ± 0.041
0.3162278 µM | -10.7 ± 0.6
1 µM | -11.1 ± 1.1
3.16228 µM | -11.2 ± 0.61
10 µM | -11 ± 1.2
31.6228 µM | -9.8 ± 2.3
100 µM | -10.4 ± 0.35

ClC1=C(Cl)C(Cl)(Cl)C(Cl)=C1Cl [Hexachlorocyclopentadiene]
Conditions | LDH release cytotoxicity [%]
0.031623 µM | -1.11 ± 2.6
0.1 µM | -0.0238 ± 0.36
0.316228 µM | -1.49 ± 0.55
1 µM | -1.14 ± 0.92
3.16228 µM | -0.83 ± 0.046
10 µM | -0.988 ± 0.15
31.6228 µM | -0.0453 ± 0.82
100 µM | 0.368 ± 1.3

N#Cc1c[nH]cc1-c1cccc2c1OC(F)(F)O2 [Fludioxonil]
Conditions | LDH release cytotoxicity [%]
0.03162 µM | -1.45 ± 1
0.1 µM | -1.69 ± 0.5
0.3162278 µM | -1.72 ± 0.45
1 µM | -1.04 ± 0.23
3.16228 µM | 0.437 ± 0.076
10 µM | 0.919 ± 0.9
31.6228 µM | 3.74 ± 0.92
100 µM | 9.41 ± 1.2

c1ccc2ncccc2c1 [Quinoline]
Conditions | LDH release cytotoxicity [%]
0.03162 µM | -1.44 ± 0.36
0.1 µM | 0.113 ± 1.4
0.3162278 µM | -0.853 ± 0.57
1 µM | -1.155 ± 0.0096
3.16228 µM | 0.144 ± 0.76
10 µM | -1.28 ± 1.3
31.6228 µM | -0.47 ± 0.21
100 µM | 2.26 ± 1.6

CN(Cc1cnc2nc(N)nc(N)c2n1)c1ccc(C(=O)NC(CCC(=O)O)C(=O)O)cc1 (configuration not stated) [Methotrexate]
Conditions | LDH release cytotoxicity [%]
0.03162 µM | -2.75 ± 1.4
0.1 µM | -1.02 ± 1.2
0.3162278 µM | 0.713 ± 1
1 µM | 0.595 ± 0.46
3.16228 µM | 2.21 ± 1.1
10 µM | 1.79 ± 0.51
31.6228 µM | 3.1 ± 0.33
100 µM | 3.39 ± 1.3

COP(=O)(NC(C)=O)SC (configuration not stated) [Acephate]
Conditions | LDH release cytotoxicity [%]
0.03162 µM | -0.866 ± 0.12
0.1 µM | -0.804 ± 0.21
0.3162278 µM | -0.558 ± 0.78
1 µM | -0.625 ± 0.92
3.16228 µM | -0.512 ± 0.7
10 µM | 0.394 ± 0.4
31.6228 µM | 0.786 ± 1.8
100 µM | 1.92 ± 1

CC(C)N1C(=O)N(c2ccccc2)CSC1=NC(C)(C)C [Buprofezin]
Conditions | LDH release cytotoxicity [%]
0.03162 µM | -1.37 ± 0.98
0.1 µM | -1.93 ± 0.62
0.3162278 µM | -1.95 ± 0.58
1 µM | -2.46 ± 1.3
3.16228 µM | -2.17 ± 0.66
10 µM | -1.91 ± 0.48
31.6228 µM | -2.33 ± 0.99
100 µM | 11.8 ± 0.29

C[N+](C)(C)CC1CO1 (configuration not stated) [Glycidyl trimethylammonium chloride]
Conditions | LDH release cytotoxicity [%]
0.03162 µM | -0.794 ± 0.83
0.1 µM | -0.64 ± 0.72
0.3162278 µM | -0.926 ± 0.041
1 µM | -1.32 ± 0.64
3.16228 µM | -1.48 ± 0.5
10 µM | -0.844 ± 0.16
31.6228 µM | -0.342 ± 0.33
100 µM | 0.366 ± 0.66

COP(=S)(OC)Oc1ccc([N+](=O)[O-])cc1 [Methyl parathion]
Conditions | LDH release cytotoxicity [%]
0.03162 µM | -0.787 ± 0.9
0.1 µM | -0.971 ± 1.1
0.3162278 µM | 0.295 ± 1.4
1 µM | -1.21 ± 0.45
3.16228 µM | -0.845 ± 0.36
10 µM | 0.053 ± 0.23
31.6228 µM | 0.525 ± 0.42
100 µM | 1.01 ± 0.04
